Laboratory results as given in patent US8304418B2, “Pyrazolopyrimidinone kinase inhibitor” (Agennix AG, priority 2007, dated 2012).
In brackets after ≈: the same amount, converted by molar mass. Several values for one entry are separate records, joined by “and”; a condition that tells them apart may be missing. Equal entries are not always repeated. Where two headings read alike, the source gives them in different places.

Tests used:
[1] = PAMPA permeability assay at pH 7.4; format: in vitro ADME
Procedure: (§1) The assays used for determining the properties of the kinase inhibitors were performed in accordance with standard procedures well known to those skilled in the art. For example, assays for determining inhibitory activity on CDKs or in cellular assays are described in WO 00/218962, WO 2005/026129, and WO 2005/063765. Solubility assays at pH 7.4 were essentially performed as described by Avdeef, A. in Pharmacokinetic Optimization in Drug Research; Testa, B.; van de Waterbeemd, H.; Folkers, G.; Guy, R. Eds.; Wiley-VHC: Zurich, 2001; pp 305-326. PAMPA permeability assays at pH 7.4 were essentially performed as described in Kansy et al., J. Med. Chem. 41: 1007-10, 1998.

[2] = Solubility assay at pH 7.4; format: physicochemical; conditions: pH 7.4, aqueous buffer
Procedure: as §1

[3] = system: cell lines A2780, HCT-116, HT-29, HepG2, NCI/ADR-RES, OVCAR3, H460, IMR-90, T98G, A549 among others; assay: Inhibition of proliferation in a set of cancer-model cell lines; format: cell-based; conditions: units (μM and nM) printed inside the value, read-out: IC50 values, inhibition of proliferation (range over cell lines)
Procedure: as §1

[4] = system: human A2780 ovarian tumor cells
Procedure: Compound P (as hydrochloric acid salt) was formulated in 30% PEG300/70% water, and Compound I (as hydrochloric acid salt) was formulated in 20% PEG300/80% D5W (5% dextrose water) and administered by oral gavage twice every day for 10 days (bid×10), while the Cytoxan control which was administered i.p. in saline every two days over a period of 10 days (q2 d×5): […]

[5] = system: human A2780 ovarian tumor cells; remark: listed apart in the source
Procedure: (§2) Xenograft Tumor-Models: 100 athymic nu/nu female mice (6-8 weeks old) from CRL were allowed to acclimate for 4 days. […] The 3rd passage of cells with approximate 90% confluence was used for these experiments. Briefly, on Day 0, mice were inoculated with 0.1 ml (total 5×10^6 cells) of the respective cell-type as a cell suspension (50×10^6 cells/ml) by subcutaneous injection into the fat pad area near the mammary gland under light anesthesia. When the average tumor weight in all mice reached over 100 mg (day 10), 80 animals with an average tumor size of 130 mg were selected and were randomly divided into 8 groups.
(§3) A 20 G gavage needle was used for the oral treatment.
(§4) Tumor growth and body weight were monitored and recorded three times a week. Tumors were measured by determining the length and width of the tumor with a digital caliper. Tumor weight was estimated using the following formula: Tumor Weight (mg)=(w^2×1)×0.52 where w=width and l=length in mm of the tumor.
(§5) Experimental treatment may cause partial regression (PR) or complete regression (CR) of tumors. PR is defined when the tumor size is 50% or less than the starting (day 1) size but greater than 0.0 mg for three consecutive measurements during the course of the study. CR occurs when there is no measurable tumor mass for three consecutive measurements. Cures are defined when CR are maintained until the completion of the experiment.
(§6) Mice were sacrificed when their tumors reached the 1000 mm^3 endpoint volume. Treatment efficacy was determined as Log Cell Kill (LCK).
(§7) Toxic deaths are defined as deaths caused by compound treatment and not by advanced disease state. […] Non-tumor related deaths after this point are recorded, but not considered toxic deaths.
(§8) Briefly, the empirical distributions of T and Td were derived from B=1000 realisations of random selection of n individual animals with replacement from the set i=1, . . . , n of the appropriate group of mice containing n evaluable animals, estimating the mean tumor size for such selection of animals for each time-point, and linear regression analysis from a semi-log plot of such averages against time. Dead mice and mice with no measurable tumor size were treated as missing data and were ignored when calculating the average.

H460 NSCLC = conditions: for LCK ± CI (95%) (Td: 2.6 d) / Toxic Mortality / Max % TGI (d): H460; for Toxic Mortality: N=10; for Max % TGI (d): day 13
Procedure: as §2, §3, §4, §5, §6, §7, §8

[6] = system: HCT116 colon carcinoma cells
Procedure: as §2, §3, §4, §5, §6, §7, §8

[7] = 30 [28] mg/kg po bidx10, day 10
[8] = HCT116, 100 [93] mg/kg po qdx10

## CC(C)c1nn(-c2c(Cl)cccc2Cl)c2nc(Cc3ccc(CN4CCCC4)c(O)c3)[nH]c(=O)c12 [Compound P, 1-(2,6-dichlorophenyl)-6-(3-hydroxy-4-pyrrolidinomethyl-phenyl)methyl-3-isopropyl-pyrazolo[3,4-d]pyrimidin-4-one]
[1]
  permeability in a PAMPA assay: about 57%
[2]
  solubility: ~210 µM (≈ 108 µg/mL)
[3]
  IC50: 0.016 to 1.6 µM
[4]; 15 [14] mg/kg po bidx10
  LCK ± CI (95%) (Td: 2.1 d): 0.20 ± 0.16 and 0.20
[4]; 15 [14] mg/kg po bidx10, N=10
  Toxic Mortality: 0
[4]; 15 [14] mg/kg po bidx10, day 10
  Max % TGI (d): 34 (10) %
[4]; 15 [14 free base] mg/kg po bidx10, HCl salt, day 6
  Max % BW Loss (d): 0 (6) %
[4]; 30 [28] mg/kg po bidx10
  LCK ± CI (95%) (Td: 2.1 d): 0.44 ± 0.19 and 0.44
[4]; 30 [28] mg/kg po bidx10, N=10
  Toxic Mortality: 0
[4]; [7]
  Max % BW Loss (d): 0.1 (10) %
  Max % TGI (d): 54 (10) %
[4]; 50 [47] mg/kg po bidx10
  LCK ± CI (95%) (Td: 2.1 d): 1.06 ± 0.48 and 1.06
[4]; 50 [47] mg/kg po bidx10, N=10
  Toxic Mortality: 0
[4]; 50 [47] mg/kg po bidx10, day 13
  Max % TGI (d): 81 (13) %
[4]; 50 [47] mg/kg po bidx10, day 15
  Max % BW Loss (d): 4.7 (15) %
[5]; 40 [37] mg/kg po qdx10
  LCK ± CI (95%) (Td: 1.7 d): 0.34 ± 0.21 and 0.34
[5]; 40 [37] mg/kg po qdx10, N=10
  Toxic Mortality: 0
[5]; 40 [37] mg/kg po qdx10, day 11
  Max % TGI (d): 46.2 (11) %
[5]; 70 [65] mg/kg po qdx10
  LCK ± CI (95%) (Td: 1.7 d): 0.75 ± 0.46 and 0.75
[5]; 70 [65] mg/kg po qdx10, N=10
  Toxic Mortality: 0
[5]; 70 [65] mg/kg po qdx10, day 11
  Max % TGI (d): 61.1 (11) %
[5]; 100 [93] mg/kg po qdx9
  LCK ± CI (95%) (Td: 1.7 d): 1.78 ± 0.56 and 1.78
  Toxic Mortality: 1/10
[5]; 100 [93] mg/kg po qdx9, day 11
  Max % TGI (d): 83.9 (11) %
H460 NSCLC; 40 [37] mg/kg po qdx10
  LCK ± CI (95%) (Td: 2.6 d): 0.22 ± 0.12 and 0.22
  Toxic Mortality: 0
  Max % TGI (d): 29.6 (13) %
H460 NSCLC; 70 [65] mg/kg po qdx10
  LCK ± CI (95%) (Td: 2.6 d): 0.26 ± 0.12 and 0.26
  Toxic Mortality: 0
  Max % TGI (d): 33.9 (13) %
H460 NSCLC; 100 [93] mg/kg po qdx10
  LCK ± CI (95%) (Td: 2.6 d): 0.54 ± 0.17 and 0.48 and 0.54
  Toxic Mortality: 0
  Max % TGI (d): 48.7 (13) %
H460 NSCLC; mouse, in vivo, po
  Max % BW Loss (d): 1.0 (8) % and 0% and 7.4 (13) %
[6]; HCT116, 40 [37] mg/kg po qdx10
  LCK ± CI (95%) (Td: 6.8 d): 0.23 ± 0.11 and 0.23
[6]; HCT116, 40 [37] mg/kg po qdx10, day 20
  Max % TGI (d): 36.2 (20) %
[6]; HCT116, 70 [65] mg/kg po qdx10
  LCK ± CI (95%) (Td: 6.8 d): 0.41 ± 0.22 and 0.41
[6]; HCT116, 70 [65] mg/kg po qdx10, day 32
  Max % TGI (d): 50.2 (32) %
[6]; [8]
  LCK ± CI (95%) (Td: 6.8 d): 0.38 ± 0.13 and 0.38
  Toxic Mortality: 1/10
[6]; HCT116, 100 [93] mg/kg po qdx10, day 16
  Max % TGI (d): 60.1 (16) %
[6]; mouse, in vivo, po
  Max % BW Loss (d): 17.3 (16) %

## O=P1(N(CCCl)CCCl)NCCCO1 (stereo not shown) [Cytoxan, cyclophosphamide]
[4]; 100 mg/kg ip q2dx5
  LCK ± CI (95%) (Td: 2.1 d): 3.56 ± 0.43 and 3.56
[4]; 100 mg/kg ip q2dx5, N=10
  Cure: 0
  Toxic Mortality: 0
[4]; 100 mg/kg ip q2dx5, day 10
  Max % BW Loss (d): 5.9 (10) %
[4]; 100 mg/kg ip q2dx5, day 13
  Max % TGI (d): 98 (13) %
[4]; 100 mg/kg ip q2dx5, mice with complete regression, N=10
  CR: 5
[4]; 100 mg/kg ip q2dx5, mice with partial regression, N=10
  PR: 5
